Consider two compounds from patent publication US7189745B1, “Compounds” (SmithKline Beecham Corporation, priority 1999, dated 2007).

Broadly, the IC50 is the concentration that inhibits the measured activity by half.

One assay deals with T1, Tie2 kinase (Homo sapiens, UniProt Q02763).
T1 construct: a baculovirus expressed GST fusion for Tie2 kinase domain was constructed and expressed using the commercial vector pAcG I (Pharmingen); GST; made in house
Put plainly: Tie2 kinase autophosphorylation flashplate assay. Format: biochemical. Conditions: ATP final 30 uM. The source says:
A partial cDNA clone for the Tie2 receptor was used to make protein for Tie kinase studies. In order to generate the primary screening assay, a baculovirus expressed GST fusion for Tie2 kinase domain was constructed and expressed using the commercial vector pAcG I (Pharmingen).
This final construct was transfected into Baculovirus and soluble GST fusion products used in the screening assay.
Tie2 kinase activity assay: The Tie2 kinase activity assay was typically run in one of 2 ways described as follows. Minor variations in the assay give similar results.
1. Autophosphorylation flashplate assay
Kinase buffer (final 20 mM Tris-HCl, pH7.0, 100 mM NaCl, 12 mM MgCl2, 1 mM DTT).
Gamma ^33p-ATP (usually final amount of 0.5–1 uCi/well)
ATP (final 30 uM, or other desired concentration)
Flashplate (96-well, polystyrene microplate with plastic scintillator coated wells)
TopCount (microplate scintillation counter)
Turn on incubator shaker and adjust temperature to 30° C.
Add 20 ul of 3× kinase buffer per well to the Flashplate
Add 20 ul of protein per well except for background. Compounds added, typically in DMSO stocks, at 1–2 ul.
Add 20 ul mixture of gamma ^33p-ATP and cold ATP per well.
Cover with transparent polyester film.
Incubate at 30° C. for two hours in shaker, or desired time. […]
Read plate on TopCount or other counting instrument. Results are calculated as % inhibition […]

The target of the next assay is T2, activated tie 2 kinase (Homo sapiens, UniProt Q02763).
T2 construct: a baculovirus expressed GST fusion for Tie2 kinase domain was constructed and expressed using the commercial vector pAcG I (Pharmingen); GST; made in house
T2 sequence (Q02763 824-1096 limits assumed): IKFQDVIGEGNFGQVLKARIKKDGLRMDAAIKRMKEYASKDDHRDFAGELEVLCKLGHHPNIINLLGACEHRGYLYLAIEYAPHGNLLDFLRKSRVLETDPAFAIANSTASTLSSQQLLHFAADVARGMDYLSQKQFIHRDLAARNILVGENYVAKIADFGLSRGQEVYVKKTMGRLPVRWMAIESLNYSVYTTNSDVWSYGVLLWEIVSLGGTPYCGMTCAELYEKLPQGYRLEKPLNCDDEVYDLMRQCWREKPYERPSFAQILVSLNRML
As to the kind of experiment: Fluorescence polarization for Tie 2 kinase. Format: biochemical. Conditions: fluorescence polarization assay, 250 uM ATP, 10 uM peptide substrate. The procedure:
2. Fluorescence Polarization for Tie 2 Kinase
2% DMSO (when screening compounds)
activated tie 2 kinase * see activation protocol below
For a 50 ul reaction add the following to each well of a 96-well black half-area plate (Costar, cat# 3694) • 1.5 ul of compound in 20% DMSO • 5 ul 9× kinase buffer. • 5 ul 2.5 mM ATP. • 5 ul 100 uM peptide substrate. • 25 ul PTK detection mix (Panvera, P-2652, 50 ml—UK distributor is Cambridge Bioscience) • 5 ul activated tie 2 kinase (protocol below) diluted in 1× buffer to initiate the reaction. • 7. Read polarization on an FP instrument cycling for 30–50 minutes in accordance with enzyme activity.
Activation of Tie 2 Kinase Protocol:
• 1. Incubate 5 uM tie 2 kinase in the 300 uM ATP and the buffering conditions described above. • 2. Allow to incubate at 27° C. for 2 hours. • 3. Add 2.5 ml reaction to a NAP-25 desalting column (Pharmacia Biotech cat. no. 17-0852-02) pre-equilibrated in 20 mM Tris-HCl pH 7.5, 100 mM NaCl2 to separate the ATP from the enzyme. • 4. Elute the enzyme with 5.0 ml 20 mM Tris-HCl pH 7.5, 100 mM NaCl2; the protein concentration should be 2.5 uM at this point. • 5. Aliquot out the enzyme and store at −80° C. as soon as possible. B. Measurement of Tie2 Receptor Signal Transduction—a Cellular Assay

The subject of assay [1] is angiogenesis (vascular density) in air pouch granuloma. Put plainly: Murine air pouch granuloma model of inflammatory angiogenesis. Conditions: positive control. Format: in vivo, mice. An excerpt: Measurement of Angiogenesis In Vivo—Murine Air Pouch Granuloma Model:
The murine airpouch granuloma model of chronic inflammation (Kimura et al., 1985, J. Pharmacobio-Dyn., 8:393–400; Colville-Nash et al., 1995, J. Pharm. and Exp. Ther., 274:1463–1472) whose disclosure is incorporated herein by reference in its entirety, is characterized by inflammatory cell influx, fibrous tissue proliferation and intense angiogenesis. […] In addition, angiogenesis can be accurately quantitated by a vascular casting method.
Day 1, mice are anesthetized using Aerrane (isoflurane) gas (5%) or other approved methods, after which 3 mls of air is injected into the dorsal subcutaneous tissue using a 27 g needle. Mice are allowed to recover. […]
When the granuloma is removed it is weighed and then dried for 3 days at 45° C. and reweighed. […] The carmine content is then determined against a carmine red standard curve (0.5 to 2 mg/ml) generated in extracted tissue from non carmine treated animals and read at 490 nm. Sample and standard values are determined typically using DeltaSoft Elisa analysis software (Biometallics Inc., Princeton, N.J.). […]
The effect of compounds on vascular density was typically measured for 6 days after induction of the granuloma. This time point has been determined to be at or near the peak of angiogenesis. […] Medroxyprogesterone had no effect on granuloma size as measured by dry weight.

T1 sequence (Q02763 824-1096 limits assumed): as above

For `COc1ccc2cc(-c3nc(C(C)(C)CNC(=O)OC(C)(C)C)[nH]c3-c3ccncc3)ccc2c1` [Example 1, (2-(4-(6-methoxynapthalen-2-yl)-5-pyridin-4-yl-1H-imidazol-2-yl)-2-methyl-propyl)-carbamic acid tert-butyl ester], the IC50 against Tie2 kinase and against activated tie 2 kinase was less than 1000 nM each time.
Turning to medroxyprogesterone, the “maximum reduction (vascular density)” value in assay [1] (measured 6 days after induction of the granuloma) was 50%. Also, the “effect on granuloma size as measured by dry weight” value in assay [1] (murine air pouch granuloma) is on record as “no effect”.
